One test deals with T1, BRD4 (BDII_E352-M457) (Homo sapiens, UniProt O60885).
T1 construct: proliferation; Protocol; made in house
Nature of the test: TR-FRET bromodomain binding assay, second bromodomain of BRD4. To be noted: His-tagged BD2, 30 nM Alexa647 probe; TR-FRET protocol A-E given per row. The method in brief:
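His-tagged BRD4 BD2 ([…]) competed against an Alexa647-labelled BET-inhibitor probe in TR-FRET. Buffer was 20 mM sodium phosphate pH 6.0, 50 mM NaCl, 1 mM EDTA, 0.01% Triton X-100, 1 mM DTT, with method D DMSO series of 2.5 mM–800 nM (stock range). IC50 from 4-parameter fit, Ki from probe Kd and concentration.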
In general terms: In TR-FRET formats the signal depends on donor and acceptor labels being close together.

Test [1] has as its system breast cancer cell line MX-1. Nature of the test: MX-1 cell line proliferation assay. It is filed as cell-based. To be noted: Homo sapiens, MX1, 72 h, MX-1 cells, 3-day proliferation assay, Cell Titer Glo; read-out: Cellular proliferation EC50. An outline of the steps:
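Cells seeded at 5000/well in RPMI 1640 with 10% FBS, allowed to adhere overnight at 37 °C, then exposed to compound at final 0.0001–3 μM for 3 days. Viability read by Cell Titer Glo luminescence, normalized to DMSO controls; EC50 from sigmoidal curve fit.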
On the technique in general: Cellular ATP, detected with luciferase, serves as a proxy for viable cell number.

The target of the next test is T2, BRD4 (BDI_K57-E168) (Homo sapiens, UniProt O60885).
T2 construct: BD1: amino acids K57-E168; made in house
In words: TR-FRET bromodomain binding assay, first bromodomain of BRD4. To be noted: His-tagged BD1, 100 nM Alexa647 probe; TR-FRET protocol A-E given per row. An outline of the steps:
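His-tagged BRD4 BD1 (K57-E168), 8 nM, with 1 nM Eu-anti-His antibody and 100 nM Alexa647-labelled BET-inhibitor probe in pH 6.0 phosphate buffer, 2% DMSO. TR-FRET read after 1 h at room temperature. IC50 from 4-parameter fit, converted to Ki using probe Kd and concentration.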

For `CCS(=O)(=O)C(C)(C)c1ccc(Oc2ccc(F)cc2F)c(-c2cn(C)c3c(=O)[nH]ccc23)c1` [Example 54, 3-{2-(2,4-difluorophenoxy)-5-[2-(ethylsulfonyl)propan-2-yl]phenyl}-1-methyl-1,6-dihydro-7H-pyrrolo[2,3-c]pyridin-7-one], the figures for the Ki at BRD4 (BDII_E352-M457) and at BRD4 (BDI_K57-E168) were 0.026 µM and 0.0034 µM, respectively. Further, the EC50 in test [1] came out at 0.021 µM.

On to `CCS(=O)(=O)C(C)c1ccc(Oc2ccc(F)cc2F)c(-c2cn(C)c3c(=O)[nH]ccc23)c1` (stereo not drawn) [Example 55, 3-{2-(2,4-difluorophenoxy)-5-[1-(ethylsulfonyl)ethyl]phenyl}-1-methyl-1,6-dihydro-7H-pyrrolo[2,3-c]pyridin-7-one], for which the results for the inhibitory constant (Ki) at BRD4 (BDII_E352-M457) and at BRD4 (BDI_K57-E168) were 0.0099 µM and 0.0042 µM, respectively. Further, the EC50 in test [1] was 0.029 µM.

With `Cn1cc(-c2cc(CS(=O)(=O)c3ccccc3)ccc2Oc2ccc(F)cc2F)c2cc[nH]c(=O)c21` [Example 58, 3-{2-(2,4-difluorophenoxy)-5-[(phenylsulfonyl)methyl]phenyl}-1-methyl-1,6-dihydro-7H-pyrrolo[2,3-c]pyridin-7-one], the inhibitory constant (Ki) at BRD4 (BDII_E352-M457) amounted to 0.088 µM; on BRD4 (BDI_K57-E168), 0.072 µM. In test [1], the EC50 was determined as 0.057 µM.

With `Cn1cc(-c2cc(S(C)(=O)=O)ccc2Oc2ccc(F)cc2)c2cc[nH]c(=O)c21` [Example 61, 3-[2-(4-fluorophenoxy)-5-(methylsulfonyl)phenyl]-1-methyl-1,6-dihydro-7H-pyrrolo[2,3-c]pyridin-7-one], the Ki at BRD4 (BDII_E352-M457) stood at 0.043 µM; at BRD4 (BDI_K57-E168), 0.018 µM. Moreover, the EC50 in test [1] was 0.125 µM.

For the compound `Cn1cc(-c2cc(S(C)(=O)=O)ccc2Oc2ccc3ccccc3c2)c2cc[nH]c(=O)c21` [Example 63, 1-methyl-3-[5-(methylsulfonyl)-2-(naphthalen-2-yloxy)phenyl]-1,6-dihydro-7H-pyrrolo[2,3-c]pyridin-7-one], the Ki was 0.066 µM at BRD4 (BDII_E352-M457) and 0.074 µM on BRD4 (BDI_K57-E168). Also, in test [1], the EC50 came to 0.187 µM.

For the compound `Cn1cc(-c2cc(S(C)(=O)=O)ccc2OCC(F)(F)C(F)(F)F)c2cc[nH]c(=O)c21` [Example 64, 1-methyl-3-[5-(methylsulfonyl)-2-(2,2,3,3,3-pentafluoropropoxy)phenyl]-1,6-dihydro-7H-pyrrolo[2,3-c]pyridin-7-one], the inhibition constant (Ki) at BRD4 (BDII_E352-M457) worked out at 0.057 µM; at BRD4 (BDI_K57-E168) it was 0.036 µM. Also, in test [1], the EC50 was determined as 0.084 µM.

As for `CC(=O)N1CCC(Oc2ccc(S(C)(=O)=O)cc2-c2cn(C)c3c(=O)[nH]ccc23)CC1` [Example 67, 3-{2-[(1-acetylpiperidin-4-yl)oxy]-5-(methylsulfonyl)phenyl}-1-methyl-1,6-dihydro-7H-pyrrolo[2,3-c]pyridin-7-one], the results for the Ki on BRD4 (BDII_E352-M457) and at BRD4 (BDI_K57-E168) were 1.38 µM and 0.045 µM, respectively. The EC50 in test [1] is > 3 µM.

Consider `Cn1cc(-c2cc(S(C)(=O)=O)ccc2NCC2CCCC2)c2cc[nH]c(=O)c21` [Example 68, 3-{2-[(cyclopentylmethyl)amino]-5-(methylsulfonyl)phenyl}-1-methyl-1,6-dihydro-7H-pyrrolo[2,3-c]pyridin-7-one], for which the values for the Ki at BRD4 (BDII_E352-M457) and on BRD4 (BDI_K57-E168) were 0.124 µM and 0.103 µM, respectively. Also, in test [1], the EC50 was found to be 0.038 µM.

In the case of `Cn1cc(-c2cc(S(C)(=O)=O)ccc2NCC2C[C@@H]3CC[C@H]2C3)c2cc[nH]c(=O)c21` (stereo partly drawn) [Example 71, 3-[2-{[(1S,4R)-bicyclo[2.2.1]hept-2-ylmethyl]amino}-5-(methylsulfonyl)phenyl]-1-methyl-1,6-dihydro-7H-pyrrolo[2,3-c]pyridin-7-one], the values for the Ki on BRD4 (BDII_E352-M457) and on BRD4 (BDI_K57-E168) were 0.285 µM and 0.197 µM, respectively. In test [1], the EC50 turned out to be 0.255 µM.

For `CCS(=O)(=O)c1ccc(Oc2ccc(C)cc2Cl)c(-c2cn(C)c3c(=O)[nH]ccc23)c1` [Example 73, 3-[2-(2-chloro-4-methylphenoxy)-5-(ethylsulfonyl)phenyl]-1-methyl-1,6-dihydro-7H-pyrrolo[2,3-c]pyridin-7-one], the results for the Ki on BRD4 (BDII_E352-M457) and on BRD4 (BDI_K57-E168) were 0.021 µM and 0.043 µM, respectively. Further, in test [1], the EC50 is 0.194 µM.

For the compound `CCS(=O)(=O)c1ccc(Oc2ccc(C#N)cc2)c(-c2cn(C)c3c(=O)[nH]ccc23)c1` [Example 78, 4-[4-(ethylsulfonyl)-2-(1-methyl-7-oxo-6,7-dihydro-1H-pyrrolo[2,3-c]pyridin-3-yl)phenoxy]benzonitrile], the Ki at BRD4 (BDII_E352-M457) came out at 0.073 µM; at BRD4 (BDI_K57-E168) it was 0.02 µM. Further, the EC50 in test [1] turned out to be 0.088 µM.

Consider `CCS(=O)(=O)c1ccc(Oc2ccccc2C#N)c(-c2cn(C)c3c(=O)[nH]ccc23)c1` [Example 83, 2-[4-(ethylsulfonyl)-2-(1-methyl-7-oxo-6,7-dihydro-1H-pyrrolo[2,3-c]pyridin-3-yl)phenoxy]benzonitrile], for which the Ki at BRD4 (BDII_E352-M457) was determined as 0.046 µM; on BRD4 (BDI_K57-E168) it was 0.043 µM. For the same compound, the EC50 in test [1] was 0.1 µM.

Turning to `CCS(=O)(=O)c1ccc(Oc2c(C)nn(C)c2C)c(-c2cn(C)c3c(=O)[nH]ccc23)c1` [Example 90, 3-{5-(ethylsulfonyl)-2-[(1,3,5-trimethyl-1H-pyrazol-4-yl)oxy]phenyl}-1-methyl-1,6-dihydro-7H-pyrrolo[2,3-c]pyridin-7-one], the Ki worked out at 0.039 µM on BRD4 (BDII_E352-M457) and 0.054 µM at BRD4 (BDI_K57-E168). Besides, the EC50 in test [1] was 0.096 µM.

Turning to `Cn1cc(-c2cc(CS(C)(=O)=O)ccc2Oc2ccc(F)cc2F)c2cc(Cl)[nH]c(=O)c21` [Example 91, 5-chloro-3-{2-(2,4-difluorophenoxy)-5-[(methylsulfonyl)methyl]phenyl}-1-methyl-1,6-dihydro-7H-pyrrolo[2,3-c]pyridin-7-one], the Ki was found to be 0.0095 µM on BRD4 (BDII_E352-M457) and 0.0054 µM on BRD4 (BDI_K57-E168). In addition, the EC50 in test [1] was 0.008 µM.

In the case of `CCc1cc2c(-c3cc(CS(C)(=O)=O)ccc3Oc3ccc(F)cc3F)cn(C)c2c(=O)[nH]1` [Example 92, 3-{2-(2,4-difluorophenoxy)-5-[(methylsulfonyl)methyl]phenyl}-5-ethyl-1-methyl-1,6-dihydro-7H-pyrrolo[2,3-c]pyridin-7-one], the Ki on BRD4 (BDII_E352-M457) came out at 0.0018 µM; on BRD4 (BDI_K57-E168), 0.0017 µM. For the same compound, the EC50 in test [1] is 0.008 µM.

As to `Cn1cc(-c2cc(CS(=O)(=O)N3CCOCC3)ccc2Oc2ccc(F)cc2F)c2cc[nH]c(=O)c21` [Example 95, 3-{2-(2,4-difluorophenoxy)-5-[(morpholin-4-ylsulfonyl)methyl]phenyl}-1-methyl-1,6-dihydro-7H-pyrrolo[2,3-c]pyridin-7-one], the Ki was 0.0021 µM on BRD4 (BDII_E352-M457) and 0.0042 µM at BRD4 (BDI_K57-E168). Also, in test [1], the EC50 worked out at 0.008 µM.

As for `Cn1cc(-c2cc(CS(N)(=O)=O)ccc2Oc2ccc(F)cc2F)c2cc[nH]c(=O)c21` [Example 96, 1-[4-(2,4-difluorophenoxy)-3-(1-methyl-7-oxo-6,7-dihydro-1H-pyrrolo[2,3-c]pyridin-3-yl)phenyl]methanesulfonamide], the Ki came to 0.011 µM on BRD4 (BDII_E352-M457) and 0.0069 µM on BRD4 (BDI_K57-E168). For the same compound, the EC50 in test [1] stood at 0.015 µM.

As for `Cn1cc(-c2cc(S(=O)(=O)N3CCc4ccccc43)ccc2OCC2CC2)c2cc[nH]c(=O)c21` [Example 97, 3-[2-(cyclopropylmethoxy)-5-(2,3-dihydro-1H-indol-1-ylsulfonyl)phenyl]-1-methyl-1,6-dihydro-7H-pyrrolo[2,3-c]pyridin-7-one], the figures for the Ki on BRD4 (BDII_E352-M457) and on BRD4 (BDI_K57-E168) were 0.081 µM and 0.158 µM, respectively. The EC50 in test [1] was determined as 0.398 µM.

`CNS(=O)(=O)Cc1ccc(Oc2ccc(F)cc2F)c(-c2cn(C)c3c(=O)[nH]ccc23)c1` [Example 100, 1-[4-(2,4-difluorophenoxy)-3-(1-methyl-7-oxo-6,7-dihydro-1H-pyrrolo[2,3-c]pyridin-3-yl)phenyl]-N-methylmethanesulfonamide]: the Ki at BRD4 (BDII_E352-M457) came to 0.0048 µM; on BRD4 (BDI_K57-E168) it was 0.0041 µM. In addition, the EC50 in test [1] stood at 0.009 µM.

For `CN(C)S(=O)(=O)Cc1ccc(Oc2ccc(F)cc2F)c(-c2cn(C)c3c(=O)[nH]ccc23)c1` [Example 101, 1-[4-(2,4-difluorophenoxy)-3-(1-methyl-7-oxo-6,7-dihydro-1H-pyrrolo[2,3-c]pyridin-3-yl)phenyl]-N,N-dimethylmethanesulfonamide], the figures for the Ki on BRD4 (BDII_E352-M457) and at BRD4 (BDI_K57-E168) were 0.0025 µM and 0.0022 µM, respectively. Also, the EC50 in test [1] was 0.005 µM.

As for `Cn1cc(-c2cc(CS(=O)(=O)NC3CCCCC3)ccc2Oc2ccc(F)cc2F)c2cc[nH]c(=O)c21` [Example 102, N-cyclohexyl-1-[4-(2,4-difluorophenoxy)-3-(1-methyl-7-oxo-6,7-dihydro-1H-pyrrolo[2,3-c]pyridin-3-yl)phenyl]methanesulfonamide], the Ki at BRD4 (BDII_E352-M457) stood at 0.081 µM; on BRD4 (BDI_K57-E168), 0.095 µM. Further, the EC50 in test [1] was 0.739 µM.

Take `Cn1cc(-c2cc(CS(=O)(=O)N3CCCCC3)ccc2Oc2ccc(F)cc2F)c2cc[nH]c(=O)c21` [Example 103, 3-{2-(2,4-difluorophenoxy)-5-[(piperidin-1-ylsulfonyl)methyl]phenyl}-1-methyl-1,6-dihydro-7H-pyrrolo[2,3-c]pyridin-7-one]: the figures for the Ki at BRD4 (BDII_E352-M457) and on BRD4 (BDI_K57-E168) were 0.0049 µM and 0.0084 µM, respectively. Besides, the EC50 in test [1] was 0.089 µM.

Usually Ki stands for a measure of affinity in units of concentration, obtained from inhibition or displacement.
